From PubChem BioAssay (NCI)
Several values for one entry are separate records, joined by “and”; a condition that tells them apart may be missing. Equal entries are not always repeated.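 Cultured in 96-well plates, cells were exposed to test compound for 48 hours across five concentrations. At the GI50, growth is halved. TGI is the concentration that stops growth completely.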

Experiments:
Test in all cases: NCI tumour cell line growth inhibition, 48 h
SK-MEL-5 melanoma = system: SK-MEL-5 melanoma
IGROV1 ovarian = system: IGROV1 ovarian
A498 renal = system: A498 renal
HCT-116 colon = system: HCT-116 colon
RPMI-8226 leukemia = system: RPMI-8226 leukemia
HCT-15 colon = system: HCT-15 colon
UO-31 renal = system: UO-31 renal
DU-145 prostate = system: DU-145 prostate
MOLT-4 leukemia = system: MOLT-4 leukemia
HT29 colon = system: HT29 colon

COc1cc(/C=C/C(=O)CC(=O)/C=C/c2cc(OC)c(O)c(OC)c2)cc(OC)c1O
GI50 (SK-MEL-5 melanoma): 13.2 µM
TGI (SK-MEL-5 melanoma): 25 µM and 36.4 µM
GI50 (IGROV1 ovarian): 11 µM
TGI (IGROV1 ovarian): 10.8 µM and 32.2 µM
GI50 (A498 renal): 15.6 µM
TGI (A498 renal): 12.2 µM and 37.5 µM
GI50 (HCT-116 colon): 17.2 µM
TGI (HCT-116 colon): 13.3 µM and > 100 µM
TGI (RPMI-8226 leukemia): 30.8 µM
TGI (HCT-15 colon): > 25 µM and 90.4 µM
GI50 (UO-31 renal): 41.2 µM
TGI (UO-31 renal): > 100 µM
GI50 (DU-145 prostate): 20.7 µM
TGI (DU-145 prostate): 24.8 µM and > 100 µM
GI50 (MOLT-4 leukemia): 5.1 µM
TGI (MOLT-4 leukemia): 25 µM and 84.4 µM
GI50 (HT29 colon): 26.3 µM
TGI (HT29 colon): 25 µM and > 100 µM

OCCCCC#Cc1ccccc1C#Cc1cccnc1
GI50 (SK-MEL-5 melanoma): 54.8 µM
TGI (SK-MEL-5 melanoma): > 100 µM
GI50 (IGROV1 ovarian): 20.3 µM
TGI (IGROV1 ovarian): 52 µM
GI50 (A498 renal): 28.5 µM
TGI (A498 renal): 88.4 µM
GI50 (HCT-116 colon): 45.9 µM
TGI (HCT-116 colon): > 100 µM
GI50 (RPMI-8226 leukemia): 35.5 µM
TGI (RPMI-8226 leukemia): > 100 µM
GI50 (HCT-15 colon): 21.9 µM
TGI (HCT-15 colon): 74.1 µM
GI50 (UO-31 renal): 25.2 µM
TGI (UO-31 renal): 90.4 µM
GI50 (DU-145 prostate): 47.3 µM
TGI (DU-145 prostate): > 100 µM
GI50 (MOLT-4 leukemia): 27.9 µM
TGI (MOLT-4 leukemia): > 100 µM
GI50 (HT29 colon): 22.3 µM
TGI (HT29 colon): 87.8 µM

CC12CCC(=O)C(O1)C1C(=O)c3ccc4c(ccc5ccccc54)c3C(=O)C12 (stereo not given)
GI50 (SK-MEL-5 melanoma): 1.63 µM
TGI (SK-MEL-5 melanoma): 3.3 µM
GI50 (IGROV1 ovarian): 7.09 µM
TGI (IGROV1 ovarian): > 100 µM
GI50 (A498 renal): 3.08 µM
TGI (A498 renal): 5.83 µM
GI50 (HCT-116 colon): 3.03 µM
TGI (HCT-116 colon): 4.71 µM
GI50 (RPMI-8226 leukemia): 1.21 µM
TGI (RPMI-8226 leukemia): > 21.5 µM
GI50 (HCT-15 colon): 14.2 µM
TGI (HCT-15 colon): 30.6 µM
GI50 (UO-31 renal): 6.69 µM
GI50 (DU-145 prostate): 2.73 µM
TGI (DU-145 prostate): 6.49 µM
GI50 (MOLT-4 leukemia): 1.31 µM
TGI (MOLT-4 leukemia): 17.5 µM
GI50 (HT29 colon): 13.2 µM
TGI (HT29 colon): > 100 µM

O=C1C=CC(=O)c2c1ccc1c3ccccc3n(Cc3ccccc3)c21
TGI (SK-MEL-5 melanoma): > 90 µM
TGI (IGROV1 ovarian): 46.2 µM
TGI (A498 renal): 44.3 µM
TGI (HCT-116 colon): 51.9 µM
TGI (RPMI-8226 leukemia): 34.6 µM
TGI (HCT-15 colon): 46.2 µM
TGI (UO-31 renal): 50.1 µM
TGI (DU-145 prostate): > 100 µM
TGI (MOLT-4 leukemia): > 38.4 µM
TGI (HT29 colon): 57 µM

CCCCCCCCCCCNC=O
TGI (SK-MEL-5 melanoma): 92 µM
TGI (IGROV1 ovarian): > 100 µM
TGI (A498 renal): 86.7 µM
TGI (HCT-116 colon): > 100 µM
TGI (RPMI-8226 leukemia): 78.7 µM
TGI (HCT-15 colon): 71.8 µM
TGI (UO-31 renal): > 100 µM
TGI (DU-145 prostate): > 100 µM
TGI (MOLT-4 leukemia): 60.6 µM
TGI (HT29 colon): > 100 µM

O=C1NC(=O)C(=Cc2cn(Cc3ccccc3)c3ccccc23)C(=O)N1
GI50 (SK-MEL-5 melanoma): 11.3 µM
TGI (SK-MEL-5 melanoma): > 55.5 µM
GI50 (IGROV1 ovarian): 0.489 µM
TGI (IGROV1 ovarian): 10.5 µM
GI50 (A498 renal): 0.125 µM
TGI (A498 renal): 0.594 µM
GI50 (HCT-116 colon): 11.7 µM
TGI (HCT-116 colon): 27.5 µM
GI50 (RPMI-8226 leukemia): 8.23 µM
TGI (RPMI-8226 leukemia): > 61.3 µM
GI50 (HCT-15 colon): 14.3 µM
TGI (HCT-15 colon): 38.2 µM
GI50 (UO-31 renal): 12 µM
TGI (UO-31 renal): 31 µM
GI50 (DU-145 prostate): 17.5 µM
TGI (DU-145 prostate): 40.4 µM
GI50 (MOLT-4 leukemia): 12.9 µM
TGI (MOLT-4 leukemia): 32.9 µM
GI50 (HT29 colon): 23.5 µM
TGI (HT29 colon): > 60.8 µM

Nc1nc(Cl)nc2c1ncn2C1OC(CO)C(O)C1F (stereo not given)
GI50 (SK-MEL-5 melanoma): 0.168 µM
TGI (SK-MEL-5 melanoma): > 8.7 µM
GI50 (IGROV1 ovarian): > 18 µM
TGI (IGROV1 ovarian): > 100 µM
GI50 (A498 renal): 0.284 µM
TGI (A498 renal): 2.55 µM
GI50 (HCT-116 colon): 0.0322 µM
TGI (HCT-116 colon): > 100 µM
GI50 (RPMI-8226 leukemia): 29.8 µM
TGI (RPMI-8226 leukemia): > 100 µM
GI50 (HCT-15 colon): 5.96 µM
TGI (HCT-15 colon): > 100 µM
GI50 (UO-31 renal): 0.228 µM
TGI (UO-31 renal): > 26 µM
GI50 (DU-145 prostate): 0.278 µM
TGI (MOLT-4 leukemia): > 100 µM
GI50 (HT29 colon): 0.445 µM
TGI (HT29 colon): > 100 µM

Cc1nc(NS(=O)(=O)c2ccc(NCN3C(=O)c4ccccc4C3=O)cc2)oc1C
GI50 (SK-MEL-5 melanoma): > 100 µM
TGI (SK-MEL-5 melanoma): > 100 µM
GI50 (IGROV1 ovarian): > 100 µM
TGI (IGROV1 ovarian): > 100 µM
GI50 (A498 renal): > 100 µM
TGI (A498 renal): > 100 µM
GI50 (HCT-116 colon): > 100 µM
TGI (HCT-116 colon): > 100 µM
GI50 (RPMI-8226 leukemia): > 100 µM
TGI (RPMI-8226 leukemia): > 100 µM
GI50 (HCT-15 colon): > 100 µM
TGI (HCT-15 colon): > 100 µM
GI50 (UO-31 renal): > 100 µM
TGI (UO-31 renal): > 100 µM
GI50 (DU-145 prostate): > 100 µM
TGI (DU-145 prostate): > 100 µM
GI50 (MOLT-4 leukemia): > 100 µM
TGI (MOLT-4 leukemia): > 100 µM
GI50 (HT29 colon): > 100 µM
TGI (HT29 colon): > 100 µM

C=C(C)[C@@H]1CCc2c(O)c(O)c(=O)cc(C)c2C1
TGI (SK-MEL-5 melanoma): 3.49 µM
TGI (IGROV1 ovarian): > 100 µM
TGI (A498 renal): > 62.3 µM
TGI (HCT-116 colon): > 100 µM
TGI (RPMI-8226 leukemia): > 100 µM
TGI (HCT-15 colon): > 100 µM
TGI (UO-31 renal): > 25.5 µM
TGI (DU-145 prostate): > 100 µM
TGI (MOLT-4 leukemia): > 25.2 µM
TGI (HT29 colon): > 100 µM

CC(=O)c1c[nH]c2ccc(-c3ccnc(Nc4ccc(NC(=O)C5CCCC5)c(CN5CCOCC5)c4)n3)cc12
GI50 (SK-MEL-5 melanoma): 0.0246 µM
TGI (SK-MEL-5 melanoma): 0.0685 µM
GI50 (IGROV1 ovarian): 0.0366 µM
TGI (IGROV1 ovarian): 0.377 µM
GI50 (A498 renal): 0.0204 µM
TGI (A498 renal): 0.0558 µM
GI50 (HCT-116 colon): 0.0138 µM
TGI (HCT-116 colon): 0.953 µM
GI50 (RPMI-8226 leukemia): 0.045 µM
TGI (RPMI-8226 leukemia): 0.262 µM
GI50 (HCT-15 colon): 0.0558 µM
TGI (HCT-15 colon): 0.758 µM
GI50 (UO-31 renal): 0.0273 µM
TGI (UO-31 renal): 0.108 µM
GI50 (DU-145 prostate): 0.0362 µM
TGI (DU-145 prostate): 2.38 µM
GI50 (MOLT-4 leukemia): 0.0287 µM
TGI (MOLT-4 leukemia): 0.474 µM
GI50 (HT29 colon): 0.0226 µM
TGI (HT29 colon): 2.25 µM
